“And” between values parts separate entries of the source, which are not always exact repeats. Equal entries are not always repeated.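 Briefly, cells in 96-well plates were exposed to five compound concentrations for 48 h, and endpoints were estimated by linear interpolation. The concentration for 50% growth inhibition is given as GI50.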 The source made the active and inactive calls. No stated cut-off is given here; in the data, active = GI50 up to about 1.1 µM and inactive = higher.
Experiments:
Test in all cases: inhibition of tumour cell growth, NCI panel, 48 h
HOP-18 = test system: HOP-18
M19-MEL = test system: M19-MEL
Hs-578T = test system: Hs-578T
KM-20L2 = test system: KM-20L2
XF498 = test system: XF498
DLD-1 = test system: DLD-1
LXFL 529 = test system: LXFL 529
SNB-78 = test system: SNB-78
RXF 631 = test system: RXF 631

Row | SMILES | GI50 (M19-MEL) | GI50 (Hs-578T) | GI50 (KM-20L2) | GI50 (DLD-1) | GI50 (LXFL 529) | further results
1 | Cc1c(Cl)cccc1NC(=O)CC1Sc2ccccc2NC1=O (configuration not stated) | 46.9 µM (inactive) and 32 µM (inactive) | 2.99 µM (inactive) | 24.6 µM (inactive) and 22.4 µM (inactive) | 35 µM (inactive) and 24.1 µM (inactive) | 45.5 µM (inactive) and 30.1 µM (inactive) | GI50 (HOP-18): 13.2 µM (inactive) and 15.1 µM (inactive); GI50 (XF498): 22.9 µM (inactive) and 22.8 µM (inactive); GI50 (SNB-78): 30 µM (inactive) and 48.6 µM (inactive)
2 | C=CC(=O)N1C/C(=C\c2ccccc2)C(=O)/C(=C/c2ccccc2)C1 | 0.979 µM (active) |  | 1.66 µM (inactive) | 0.458 µM (active) | 1.33 µM (inactive) | GI50 (HOP-18): 3.24 µM (inactive); GI50 (XF498): 1.7 µM (inactive)
3 | Nc1ccccc1.O=P(O)(OP(=O)(O)c1ccccc1)c1ccccc1 |  | > 100 µM (inactive) |  |  |  | 
4 | O=[N+]([O-])c1c(/C=N/Nc2ccccc2)oc(-c2ccc3c(c2)OCO3)c1-c1ccc2c(c1)OCO2 | 13.8 µM (inactive) |  | 2.24 µM (inactive) | 5.73 µM (inactive) | 0.746 µM (active) | GI50 (RXF 631): 65.8 µM (inactive); GI50 (XF498): 2.89 µM (inactive)
5 | C=CO/N=[N+](\[O-])N(CC)CC |  | > 100 µM (inactive) |  |  |  | 
6 | NCCCc1nonc1C(=O)O |  | > 100 µM (inactive) |  |  |  | 
7 | COc1ccc(CNc2cnc3cc(N)ccc3n2)cc1 | > 100 µM (inactive) |  | > 100 µM (inactive) |  | > 100 µM (inactive) | GI50 (XF498): > 100 µM (inactive); GI50 (SNB-78): > 100 µM (inactive)
8 | CCN/C(=N\Nc1ccc([N+](=O)[O-])cc1)P(=O)(OC(C)C)OC(C)C | > 100 µM (inactive) |  | > 100 µM (inactive) | > 100 µM (inactive) | > 100 µM (inactive) | GI50 (XF498): 66.5 µM (inactive); GI50 (SNB-78): > 100 µM (inactive)
9 | COC(=O)CCC1(O)C=CC(=O)C=C1 |  | 29.4 µM (inactive) |  |  |  | 
10 | CC1=NN(c2nc(N)nc(CBr)n2)C(C)(C)C1 |  | 13.9 µM (inactive) |  |  |  | 
11 | CC1(C)S[C@H](c2ccccc2C(=O)O)N[C@@H]1CC(=O)O | > 100 µM (inactive) |  |  | > 100 µM (inactive) | > 100 µM (inactive) | GI50 (HOP-18): > 100 µM (inactive); GI50 (SNB-78): > 100 µM (inactive)
12 | COc1ccc2c(c1)-c1nc(=S)n(CCCN(C)C)c3ccc([N+](=O)[O-])c(c13)N2 |  | 1.72 µM (inactive) |  |  |  | 
13 | COC(=O)CCCC(=O)NC1=C(Nc2ccc(OC)cc2)C(=O)c2ccccc2C1=O |  | 22.8 µM (inactive) |  |  |  | 
14 | O=C(/C=C/c1ccccc1Cl)c1ccccc1Cl | 25.8 µM (inactive) |  | 18.1 µM (inactive) | 17.5 µM (inactive) | 17.2 µM (inactive) | GI50 (HOP-18): 28.1 µM (inactive); GI50 (SNB-78): 22.4 µM (inactive)
15 | Cc1cn(C2CC(ON3C(=O)c4ccccc4C3=O)C(CO)O2)c(=O)[nH]c1=O (configuration not stated) |  | > 10 µM (inactive) |  |  |  | 
16 | CC(C)(CN)SCc1ccccc1 |  | > 100 µM (inactive) |  |  |  | 
17 | CCCCC1=C(C(=O)N2CCOCC2)C2(OCCO2)C1Cl (configuration not stated) |  | 30.1 µM (inactive) |  |  |  | 
18 | C=C(C(=O)O)[C@@H]1C[C@@H]2O[C@H]1[C@@H](O)[C@@H](C)CCCC(C)=CCC[C@@]2(C)O |  | > 100 µM (inactive) |  |  |  | 
19 | COC(=O)C1Cc2c([nH]c3ccccc23)C(c2ccccc2O)N1 (configuration not stated) |  |  | 95.5 µM (inactive) | 42.9 µM (inactive) | 62.7 µM (inactive) | GI50 (HOP-18): > 100 µM (inactive)
20 | O=C(CC(C(=O)c1cccs1)c1ccsc1)c1ccsc1 (configuration not stated) |  | 20.3 µM (inactive) |  |  |  | 
21 | c1ccc(C2=NN3CN(N2)c2ccccc2OCCCOc2ccccc23)cc1 | > 100 µM (inactive) |  | > 100 µM (inactive) |  | > 100 µM (inactive) | GI50 (XF498): > 100 µM (inactive); GI50 (SNB-78): > 100 µM (inactive)
22 | CCOC(=O)c1c(N2CCOCC2)ncn(-c2cccc(Cl)c2)c1=O |  | > 100 µM (inactive) |  |  |  | 
23 | Cc1cc(OCc2nnc3n2N=C(c2cc(F)c(Cl)cc2Cl)/C(=C/c2ccc(Cl)cc2)S3)ccc1Cl |  | 15.2 µM (inactive) |  |  |  | 
24 | Nc1ncnc2c1ncn2CC(O)C(=O)O (configuration not stated) | > 100 µM (inactive) | > 100 µM (inactive) | > 100 µM (inactive) | > 100 µM (inactive) | > 100 µM (inactive) | GI50 (HOP-18): 71 µM (inactive)
25 | COc1cccc(C2CC(C)(N3CCCC3)Oc3cc4c(cc32)OCO4)c1O (configuration not stated) |  | 21.5 µM (inactive) |  |  |  | 
26 | CC[C@@H]1C[C@@H](O)[C@@H]2[C@H](O)[C@H](O)CN2C1 |  | > 100 µM (inactive) |  |  |  | 
27 | O=C(c1ccccc1)C1CCCCN1C(=O)c1ccccc1 (configuration not stated) | > 100 µM (inactive) |  | > 100 µM (inactive) | > 100 µM (inactive) | > 100 µM (inactive) | GI50 (HOP-18): > 100 µM (inactive); GI50 (SNB-78): > 100 µM (inactive)
28 | CC1(C)C2CCC1(C)C(N/C(=C(/C(Cl)=C(Cl)Cl)[N+](=O)[O-])n1nnc3ccccc31)C2 (configuration not stated) |  | 17.3 µM (inactive) |  |  |  | 
29 | Clc1ccc(C2=CC(c3ccccc3)N3C(=N[C@H]4CCCC[C@@H]43)N2)cc1 (some centres not stated) |  | 3.12 µM (inactive) |  |  |  | 
30 | CC[C@@]12N=C(N(C)C)C[C@]1(O)ON=C2C | > 100 µM (inactive) |  | > 100 µM (inactive) | > 100 µM (inactive) | > 100 µM (inactive) | GI50 (HOP-18): > 100 µM (inactive); GI50 (XF498): > 100 µM (inactive)
